# Measured values: PubChem BioAssay (NCI)
#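 Following 48 hours of exposure in 96-well plates, responses at five concentrations were used to interpolate endpoints linearly. Abbreviation: GI50, concentration required for 50% inhibition of growth. TGI marks complete inhibition of growth.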
# How the values were obtained:
# Experiment in all cases: inhibition of tumour cell growth, NCI panel, 48 h
# [1] = test system: KM12 colon
# [2] = test system: 786-0 renal
# [3] = test system: SNB-19 CNS
# [4] = test system: EKVX NSCLC
# [5] = test system: MDA-MB-231 breast
# [6] = test system: BT-549 breast
# [7] = test system: SK-OV-3 ovarian
# [8] = test system: A498 renal
# [9] = test system: UACC-257 melanoma
# [10] = test system: HCC-2998 colon
Structure (SMILES),GI50 [1],GI50 [2],GI50 [3],GI50 [4],GI50 [5],GI50 [6],TGI [6],TGI [1] [µM],TGI [2] [µM],TGI [3] [µM],TGI [4] [µM],TGI [7] [µM],TGI [8] [µM],TGI [9] [µM],TGI [10] [µM],TGI [5] [µM],GI50 [10] [µM],GI50 [7] [µM],GI50 [8] [µM],GI50 [9] [µM]
COc1ccc(C=C2C(=O)NC(=O)NC2=O)cc1OCc1ccccc1,33 µg/mL,52.9 µg/mL,23.3 µg/mL,85.2 µg/mL,31.4 µg/mL,16.8 µg/mL,43.2 µg/mL,,,,,,,,,,,,,
NS(=O)(=O)c1ccc(NC(=O)c2cccc3c(Nc4ccc(S(N)(=O)=O)cc4)c4ccccc4nc23)cc1,,,,,,,,25.6,> 100,> 100,> 100,> 100,> 100,> 100,,,,,,
CC1CC(=O)c2c(ccc3c2C(=O)c2cccc(O)c2C3=O)C1 (stereo unspecified),,,,,,,,26.7,21.2,26.1,28,57.2,27.5,19.2,23.2,,,,,
CCOC(=O)c1cn(CC)c2cc3c(cc2c1=O)SCS3,,,,,,,,> 100,> 100,> 100,> 100,> 100,,> 100,> 100,,,,,
CC1=NN(c2ccccc2)C(=O)C1N=Nc1ccc(S(N)(=O)=O)cc1 (stereo unspecified),,,,,,,> 100 µM,> 100,> 100,> 100,> 100,> 100,> 100,> 100,,> 100,,,,
CC(=O)O[C@H]1CC[C@@]2(C)C(=C/C(=N\[N+](=O)[O-])[C@H]3C4CCC([C@H](C)CCCC(C)C)[C@@]4(C)CCC32)C1 (stereo partly specified),,,,,,,,,> 100,> 100,> 100,> 100,> 100,> 100,,,,,,
COc1ccc(/C(C#N)=C(/N)SCc2ccccc2Cl)cc1,,,,,,,,> 10,32.7,> 10,48.2,86.9,42.3,33.7,31.7,,,,,
COC(=O)c1nc(N)nc(C(=O)OC)c1C(=O)c1ccccc1,,,,,,,,> 100,> 100,> 100,> 100,> 100,> 100,> 100,> 100,,,,,
O=c1[nH]c2c(c3ccccc13)CCc1ccccc1-2,,,,,,,,> 100,> 100,> 100,> 100,> 100,,> 100,> 100,,,,,
NC(=O)N/N=C(\CCC(=O)N(Cc1ccccc1)Cc1ccccc1)CC(=O)c1ccc(F)cc1,,,,,,,,> 100,87.4,> 100,> 100,> 100,,> 100,> 100,,,,,
[O-][n+]1c2cc(CN3CCOCC3)c(CN3CCOCC3)cc2[n+]([O-])c2c(O)cccc21,,,,,,,,8.55,6.03,> 40.8,20.2,13.5,31.5,16.3,,,,,,
Cc1cccc(N=C2NC(=O)C(CC(=O)Nc3ccccc3Cl)S2)c1 (stereo unspecified),,,,,,,,,> 100,> 100,> 100,,> 100,> 100,> 100,,,,,
COc1cc(/C=C\c2ccc(Cl)cc2)cc(OC)c1OC,,,,,,,,> 100,20.3,> 100,> 87.5,89.3,1.25,39.2,32.7,,,,,
COC(=O)C1C(/C=C/c2ccoc2)ON2CCC[C@@H]12 (stereo partly specified),,,,,,,,> 100,> 100,> 100,> 100,,,> 100,> 100,,,,,
O=C(NC1C=Nc2ccccc2NC1=O)c1ccccc1Cl (stereo unspecified),,,,,,,,> 100,> 100,> 100,> 100,> 100,> 100,> 100,> 100,,,,,
CCCCN(CCCC)CCC(O)c1cc2ccc(C(F)(F)F)cc2c2cc(C(F)(F)F)ccc12 (stereo unspecified),2.93 µM,1.55 µM,3.92 µM,9.3 µM,1.33 µM,,,9.24,3.2,15.3,26.8,15.3,5.86,5.96,4.58,3.16,2.08,3.98,2.02,2.15
COc1ccc(/C=N\O[Si](C)(C)C(C)(C)C)cc1O[Si](C)(C)C(C)(C)C,,,,,,,,32.7,30.8,33.3,41.6,46.5,33.2,43.3,32.9,,,,,
Oc1ccc(O)c2c1C1(Cl)C(Cl)=C(Cl)C2(Cl)C1(Cl)Cl,2.44 µM,7.84 µM,9.45 µM,1.47 µM,4.65 µM,,,7.62,22.4,27.3,7.45,20.4,6.23,17.4,21.3,23,8.7,7.41,1.83,3.97
OC1c2ccccc2C2C(O)c3ccccc3C12 (stereo unspecified),,,,,,,,> 100,> 100,,> 100,> 100,,> 100,> 100,,,,,
O=C1NN=C(c2ccc([N+](=O)[O-])cc2)C1n1nc(-c2ccccc2)c2ccccc2c1=O (stereo unspecified),,,,,,,,> 100,> 100,> 100,> 100,> 100,> 100,> 100,> 100,,,,,
NNC(=S)N/N=C(/C(=O)Nc1ccc([N+](=O)[O-])cc1)c1nc2ccc([N+](=O)[O-])cc2[nH]c1=O,,,,,,,,> 100,> 100,,> 100,> 100,> 100,> 100,> 100,,,,,
O=C1NN=CN2C(=O)CCC12 (stereo unspecified),,,,,,,,> 100,> 100,> 100,> 100,> 100,> 100,> 100,> 100,,,,,
O=CN1N=C(c2ccc(Nc3ccnc4cc(Cl)ccc34)cc2)CC1c1ccc(Cl)cc1 (stereo unspecified),0.538 µM,0.908 µM,1.92 µM,,1.43 µM,4.77 µM,> 100 µM,> 100,> 100,> 100,,,> 100,> 100,8.11,> 100,1.61,,> 100,> 100
O=C(CC(=O)C1CCOC1=O)C(=O)Nc1ccc(Cl)cc1 (stereo unspecified),,,,,,,,> 100,> 100,> 100,> 100,> 100,> 100,> 100,> 100,,,,,
